US8008506B2, “Indazole compounds” (priority 2008, dated 2011)
In brackets after ≈: the same amount, converted by molar mass.

How the values were obtained:
[1] = Test Example 11: solubility in hydrochloric acid buffer solution at pH 1.2; assay type: physicochemical; conditions: simulated gastric fluid, thermodynamic from solid; hydrochloric acid buffer solution at pH 1.2, 37° C., one hour, 1 mg/mL nominal
Protocol: Test on Solubility in Hydrochloric Acid Buffer Solution at pH 1.2
A test compound is precisely weighed to 500 μg, and a hydrochloric acid buffer solution at pH 1.2 is added thereto to a concentration of 1 mg/mL. The solution is shaken at 37° C. for one hour. After the shaking, the entire amount of the solution is transferred into a filter tube, and the solution is filtered by centrifugation. The filtrate is analyzed by HPLC, and the solubility of the test compound is determined by dividing the peak area value of the filtrate by the peak area value of the standard solution.
The standard solution is prepared by precisely weighing 500 μg of the test compound, and dissolving the test compound in DMSO to a concentration of 1 mg/mL.
YMC-Pack C18 (4.6 mm×150 mm) (manufactured by YMC Co., Ltd.) is used as a separating column. The detection is performed with UV-254 nm. Elution is carried out at a flow rate of 1 ml/min, using solution A=water [containing 0.1% (v/v) acetic acid] and solution B=acetonitrile as the solvents, under the conditions in which a linear gradient of the solution B is run from 5 to 98% (v/v) from zero minute to 20 minute, subsequently solution B is eluted at 98% up to 25 minute, and the solution B is eluted at 5% from 25.01 minute to […].

[2] = target: T1, human β1 adrenergic receptor (Homo sapiens, UniProt P08588); experiment: Test Example 2-A: human β1 adrenergic receptor agonist activity (method of Test Example 1-A); assay type: cell-based; conditions: Table 1; for β1 receptor EC50: Test Example 2-A; for β1 receptor I.A.: maximum response to isoproterenol taken as 100%
T1 construct: expressed in transfected cells; host or cells: CHO (Chinese Hamster Ovary) cells, pcDNA3
T1 sequence (P08588 whole entry): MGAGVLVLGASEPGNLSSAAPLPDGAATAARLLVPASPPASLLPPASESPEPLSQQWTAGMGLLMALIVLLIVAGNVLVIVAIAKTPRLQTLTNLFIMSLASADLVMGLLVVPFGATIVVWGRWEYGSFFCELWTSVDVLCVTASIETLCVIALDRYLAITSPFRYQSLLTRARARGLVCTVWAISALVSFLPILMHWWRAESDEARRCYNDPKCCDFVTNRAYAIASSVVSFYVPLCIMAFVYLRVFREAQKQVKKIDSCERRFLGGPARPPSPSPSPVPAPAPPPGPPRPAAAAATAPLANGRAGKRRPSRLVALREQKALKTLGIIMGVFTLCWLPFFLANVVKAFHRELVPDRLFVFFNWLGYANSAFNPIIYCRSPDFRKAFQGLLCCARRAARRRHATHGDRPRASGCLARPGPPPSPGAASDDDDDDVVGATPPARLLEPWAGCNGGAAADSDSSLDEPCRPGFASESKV
Protocol: (§1) The measurement of human β3 adrenergic receptor agonist activity is carried out using CHO (Chinese Hamster Ovary) cells transfected with pcDNA3 (manufactured by Invitrogen, Inc.) to which human β3 gene has been inserted. […] This human β3 cDNA fragment is used as a probe, and the full length human β3 gene is obtained from a human genomic library (manufactured by Clontech Laboratories, Inc.). The above cells are cultured in Ham's F-12 medium containing 10% fetal bovine serum and 400 μg/ml geneticin (manufactured by Invitrogen, Inc.). These cells are seeded on a 24-well plate to a concentration of 1×10^5 cells/well, and after being cultured for about 20 hours, the cells are left to stand in serum-free Ham's F-12 medium for 2 hours. A test compound is initially dissolved in DMSO, and then is diluted stepwise with Ham's F-12 containing 20 mmol/L HEPES, 1 mmol/L isobutylmethylxanthine, and 1 mmol/L ascorbic acid. The dilution is added to the cells. After the cells are cultured for 30 minutes, and then the medium is removed, followed by addition of 0.1 ml of 1 N NaOH to the cells. The cells are left to stand for 20 minutes, and then are added with 0.1 ml of 1 N acetic acid and are stirred. The resulting cell lysate is centrifuged, and then is subjected to quantification of cAMP with cAMP EIA kit (manufactured by Cayman Chemical Co.). […] Measurement of Human β1 Adrenergic Receptor Agonist Activity

[3] = target: T2, human β3 adrenergic receptor (Homo sapiens, UniProt P13945); experiment: Test Example 1-A: human β3 adrenergic receptor agonist activity (cAMP EIA, transfected CHO cells, 24-well); assay type: cell-based; conditions: Table 1; for EC50: Test Example 1-A; for β3 receptor I.A.: maximum response to isoproterenol taken as 100%
T2 construct: the full length human β3 gene is obtained from a human genomic library; expressed in transfected cells; host or cells: CHO (Chinese Hamster Ovary) cells, pcDNA3, geneticin selection
T2 sequence (P13945 whole entry): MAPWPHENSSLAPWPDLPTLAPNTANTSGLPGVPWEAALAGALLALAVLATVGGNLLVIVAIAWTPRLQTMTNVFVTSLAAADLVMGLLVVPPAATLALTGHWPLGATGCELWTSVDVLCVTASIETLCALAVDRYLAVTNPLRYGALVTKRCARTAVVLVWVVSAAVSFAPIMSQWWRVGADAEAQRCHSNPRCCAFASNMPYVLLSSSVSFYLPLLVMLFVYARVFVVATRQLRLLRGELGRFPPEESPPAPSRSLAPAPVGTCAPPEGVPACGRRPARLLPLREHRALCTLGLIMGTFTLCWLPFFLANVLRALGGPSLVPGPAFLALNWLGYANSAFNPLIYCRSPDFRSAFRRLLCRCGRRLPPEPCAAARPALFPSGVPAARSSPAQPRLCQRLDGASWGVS
Protocol: Measurement of Human β3 Adrenergic Receptor Agonist Activity
The measurement of human β3 adrenergic receptor agonist activity is carried out using CHO (Chinese Hamster Ovary) cells transfected with pcDNA3 (manufactured by Invitrogen, Inc.) to which human β3 gene has been inserted. […] This human β3 cDNA fragment is used as a probe, and the full length human β3 gene is obtained from a human genomic library (manufactured by Clontech Laboratories, Inc.). The above cells are cultured in Ham's F-12 medium containing 10% fetal bovine serum and 400 μg/ml geneticin (manufactured by Invitrogen, Inc.). These cells are seeded on a 24-well plate to a concentration of 1×10^5 cells/well, and after being cultured for about 20 hours, the cells are left to stand in serum-free Ham's F-12 medium for 2 hours. A test compound is initially dissolved in DMSO, and then is diluted stepwise with Ham's F-12 containing 20 mmol/L HEPES, 1 mmol/L isobutylmethylxanthine, and 1 mmol/L ascorbic acid. The dilution is added to the cells. After the cells are cultured for 30 minutes, and then the medium is removed, followed by addition of 0.1 ml of 1 N NaOH to the cells. The cells are left to stand for 20 minutes, and then are added with 0.1 ml of 1 N acetic acid and are stirred. The resulting cell lysate is centrifuged, and then is subjected to quantification of cAMP with cAMP EIA kit (manufactured by Cayman Chemical Co.).

[4] = target: T3, human β2 adrenergic receptor (Homo sapiens, UniProt P07550); experiment: Test Example 3-A: human β2 adrenergic receptor agonist activity (method of Test Example 1-A); assay type: cell-based; conditions: Table 1; for β2 receptor EC50: Test Example 3-A; for β2 receptor I.A.: maximum response to isoproterenol taken as 100%
T3 construct: expressed in transfected cells; host or cells: CHO (Chinese Hamster Ovary) cells, pcDNA3
T3 sequence (P07550 whole entry): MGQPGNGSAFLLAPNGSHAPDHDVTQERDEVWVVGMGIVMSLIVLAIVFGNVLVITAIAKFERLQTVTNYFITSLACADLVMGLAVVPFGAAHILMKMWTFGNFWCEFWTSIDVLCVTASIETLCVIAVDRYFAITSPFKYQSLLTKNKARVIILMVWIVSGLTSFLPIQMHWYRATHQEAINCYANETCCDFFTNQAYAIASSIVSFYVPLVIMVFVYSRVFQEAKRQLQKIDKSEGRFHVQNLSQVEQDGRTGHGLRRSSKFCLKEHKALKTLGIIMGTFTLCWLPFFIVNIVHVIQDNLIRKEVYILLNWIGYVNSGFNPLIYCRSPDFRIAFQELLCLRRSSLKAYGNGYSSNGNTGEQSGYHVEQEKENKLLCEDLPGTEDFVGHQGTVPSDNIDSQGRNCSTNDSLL
Protocol: [Worded in the source for another target; this target is reported under the same test.] as §1, with “β2” for “β1”

| SMILES | solubility at 1 h [1] | β1 receptor EC50 [2] | β1 receptor I.A. [2] | EC50 [3] | β3 receptor I.A. [3] | β2 receptor EC50 [4] | β2 receptor I.A. [4] |
| --- | --- | --- | --- | --- | --- | --- | --- |
| CC(C)c1n[nH]c2cc(OCCNC[C@H](O)c3cccc(NS(C)(=O)=O)c3)ccc12 [Example 1, (R)-N-(3-(1-hydroxy-2-(2-(3-isopropylindazol-6-yloxy)ethylamino)ethyl)phenyl)methanesulfonamide] | ≥ 1000 µg/mL | – | – | – | – | – | – |
| CCc1n[nH]c2cc(OCCNC[C@H](O)c3cccc(NS(C)(=O)=O)c3)ccc12 [Example 2, (R)-N-(3-(1-hydroxy-2-(2-(3-ethylindazol-6-yloxy)ethylamino)ethyl)phenyl)methanesulfonamide] | ≥ 1000 µg/mL | a) | 8.1% | 29 nM | 77% | a) | 3.0% |
| CCCc1n[nH]c2cc(OCCNC[C@H](O)c3cccc(NS(C)(=O)=O)c3)ccc12 [Example 3, (R)-N-(3-(1-hydroxy-2-(2-(3-propylindazol-6-yloxy)ethylamino)ethyl)phenyl)methanesulfonamide] | – | – | – | 29 nM | 77% | – | – |
| CS(=O)(=O)Nc1cccc([C@@H](O)CNCCOc2ccc3c(C(F)(F)F)n[nH]c3c2)c1 [Example 4, (R)-N-(3-(1-hydroxy-2-(2-(3-trifluoromethylindazol-6-yloxy)ethylamino)ethyl)phenyl)methanesulfonamide] | 963 µg/mL (≈ 2100 µM) | – | – | – | – | – | – |
| CN(C)C(=O)CCc1n[nH]c2cc(OCCNC[C@H](O)c3cccc(NS(C)(=O)=O)c3)ccc12 [Example 5, (R)-3-(6-(2-(2-hydroxy-2-(3-(methylsulfonamido)phenyl)ethylamino)ethoxy)-indazol-3-yl)-N,N-dimethylpropanamide] | ≥ 1000 µg/mL | a) | 3.3% | 51 nM | 75% | a) | 3.2% |
| COCc1n[nH]c2cc(OCCNC[C@H](O)c3cccc(NS(C)(=O)=O)c3)ccc12 [Example 6, (R)-N-(3-(1-hydroxy-2-(2-(3-methoxymethylindazol-6-yloxy)ethylamino)ethyl)phenyl)methanesulfonamide] | ≥ 1000 µg/mL | a) | 3.3% | 7.4 nM | 82% | a) | 7.6% |
